According to US20080187508A1, “Treatment of Golmerular Basement Membrane Disease Involving Matrix Metalloproteinase-12” (BOYS TOWN NATIONAL RESEARCH HOSPITAL, priority 2004, published 2008):
Entries after “also recorded” stand apart in the source; their conditions may differ. Where a name gives a salt, the structure may show the parent alone.

Assays:
Alport mice [1] = assay: immunofluorescence of kidney cryosections (fibronectin, collagen IV α1/α2) of treated Alport mice; format: in vivo, mouse; details: Alport mice treated from 4 to 7 weeks of age, MMI-270 50 μg/g I.P., BAY 129566 4 mg once daily oral gavage, fibronectin and collagen IV α1/α2 immunostaining
Protocol: The Alport mouse model has been described (Cosgrove et al. (1996) Genes Dev. 10, 2981-2992). The control mice used were normal for both collagen α3(IV) alleles, and are a product of double heterozygote crosses for the Alport mutation. The use of animals in this study was performed in accordance with an approved institutional IACUC protocol. Extreme care was taken to minimize pain and discomfort suffered by the mice. MMP inhibitors were administered between 4 and 7 weeks of age. All drugs were freshly prepared prior to administration. BAY 129566 was emulsified in suspension with 0.5% carboxymethyl cellulose and 4 mg given once a day by oral gavage. MMI-270 was solubilized in 0.9% saline and administered by I.P. injection (50 μg/g body weight) once a day.
Cryosections ([…]) of kidneys from 7-week-old normal and Alport mice were air dried, fixed by immersion in ice cold acetone, and subjected to immunohistochemical staining analysis using antibodies specific for MMP-3 (rabbit polyclonal anti-human MMP-3, a gift from Dr. Z. Gunza-Smith, Miami, Fla., used at 1:200 dilution), MMP-12 (rabbit polyclonal antibody against mouse MMP-12, kindly provided by Yoshikatsu Kaneko, used at 1:100 dilution), type IV collagen α1/2 chains (rabbit polyclonal against mouse type IV collagen, Biodesign, Inc., Saco, Me., used at 1:200 dilution), fibronectin (rabbit polyclonal against human plasma fibronectin, Sigma Chemical Co., St. Louis, Mo., used at 1:200). Anti-CD31 antibodies were directly conjugated to Alexa 568 (Molecular Probes, Eugene Oreg.) and purchased from Immunotech (Marseille, France). […] Images were collected using a Cytovision Ultra Image analysis system interfaced with an Olympus BH-2 fluorescence microscope.
To assess the effect of these two compounds on Alport renal disease progression, Alport mice were administered either MMI 270 or BAY 129566 from 4 to 7 weeks of age. […] Cryosections were analyzed by immunofluorescence microscopy to assess for the degree of glomerular and tubulointerstitial damage using antibodies specific for collagen IV α1 and α2 chains, and fibronectin.

Alport mice [2] = assay: transmission electron microscopy of glomerular basement membrane of treated Alport mice; format: in vivo, mouse; details: Alport mice treated with MMP inhibitor from 4 to 7 weeks of age, electron microscopy
Protocol: The Alport mouse model has been described (Cosgrove et al. (1996) Genes Dev. 10, 2981-2992). The control mice used were normal for both collagen α3(IV) alleles, and are a product of double heterozygote crosses for the Alport mutation. The use of animals in this study was performed in accordance with an approved institutional IACUC protocol. Extreme care was taken to minimize pain and discomfort suffered by the mice. MMP inhibitors were administered between 4 and 7 weeks of age. All drugs were freshly prepared prior to administration. BAY 129566 was emulsified in suspension with 0.5% carboxymethyl cellulose and 4 mg given once a day by oral gavage. MMI-270 was solubilized in 0.9% saline and administered by I.P. injection (50 μg/g body weight) once a day. Transmission electron microscopy was performed as previously described (Cosgrove et al., 1996, Genes Dev. 10, 2981-2992). Ultrastructural localization studies of type IV collagen were performed essentially as previously described (Bhattacharya et al., 2002). Kidneys from 7-week-old control and Alport mice were fixed by heart perfusion with 2% paraformaldehyde in PBS, and post-fixed in this same solution overnight. Ultrathin (70 nm) sections were reacted for 4 hours at room temperature with goat anti-collagen IV antibodies (Southern Biotechnology, Birmingham, Ala.). After six 10 minute washes in PBS, specimen were reacted for 2 hours at room temperature with 10 nanometers (nm) gold-conjugated anti-rabbit antibodies (Vector Laboratories, Burlingame, Calif.). Grids were washed as before, air-dried, counterstained with uranyl acetate, and examined using transmission electron microscopy. Propagermanium (3-oxygemylpropinic acid polymer, Sanwa Kagaku Kenkyusho Co., Nagoya, Japan) was administered orally (10 milligrams per kilogram (mg/kg) in 1% gelatin) by gavage once daily starting at 5 weeks of age, and kidneys harvested at 7 weeks of age. Three animals per group, Alport mice and control litter mates, gavaged with drug or vehicle only, were analyzed. […] Proteolytic degradation of the GBM in Alport syndrome might underlie the progressive irregular GBM damage and podocyte foot process effacement. Type IV collagen from Alport kidneys is more susceptible to proteolytic degradation in vitro than type IV collagen from healthy kidneys (Kalluri et al. (1997) J. Clin. Invest. 99, 2470-2478, presumably owing to the reduced number of interchain disulfide crosslinks (Gunwar et al. (1998) J. Biol. Chem. 273, 8767-8775).

MMP-2 = biological target: T1, MMP-2 (Homo sapiens, UniProt P08253); details: hydrochloride monohydrate; cited from earlier work
T1 sequence (P08253 110-660): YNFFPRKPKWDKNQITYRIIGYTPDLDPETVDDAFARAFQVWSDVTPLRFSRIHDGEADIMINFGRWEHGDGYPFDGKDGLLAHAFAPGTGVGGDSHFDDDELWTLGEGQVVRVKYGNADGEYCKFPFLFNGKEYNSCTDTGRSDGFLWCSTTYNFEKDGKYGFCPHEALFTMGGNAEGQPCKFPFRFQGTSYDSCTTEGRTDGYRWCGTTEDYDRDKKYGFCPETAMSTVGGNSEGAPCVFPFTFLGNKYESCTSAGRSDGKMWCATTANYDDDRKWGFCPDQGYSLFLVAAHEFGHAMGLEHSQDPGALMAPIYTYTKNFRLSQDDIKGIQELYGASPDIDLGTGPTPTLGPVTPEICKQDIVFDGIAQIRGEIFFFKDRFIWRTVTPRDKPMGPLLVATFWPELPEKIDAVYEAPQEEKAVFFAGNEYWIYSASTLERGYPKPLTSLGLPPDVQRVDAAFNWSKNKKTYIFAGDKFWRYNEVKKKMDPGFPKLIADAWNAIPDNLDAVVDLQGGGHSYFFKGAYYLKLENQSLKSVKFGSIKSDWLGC

MMP-3 = MMP-3 (Homo sapiens, UniProt P08254); details: hydrochloride monohydrate; cited from earlier work
MMP-14 = MMP-14 (Homo sapiens, UniProt P50281); details: hydrochloride monohydrate; cited from earlier work
wide range of MMPs = details: in vitro; cited from earlier work
[3] = listed as NMI 270, hydrochloride monohydrate

MMP-3, sequence (P08254 100-477, species assumed): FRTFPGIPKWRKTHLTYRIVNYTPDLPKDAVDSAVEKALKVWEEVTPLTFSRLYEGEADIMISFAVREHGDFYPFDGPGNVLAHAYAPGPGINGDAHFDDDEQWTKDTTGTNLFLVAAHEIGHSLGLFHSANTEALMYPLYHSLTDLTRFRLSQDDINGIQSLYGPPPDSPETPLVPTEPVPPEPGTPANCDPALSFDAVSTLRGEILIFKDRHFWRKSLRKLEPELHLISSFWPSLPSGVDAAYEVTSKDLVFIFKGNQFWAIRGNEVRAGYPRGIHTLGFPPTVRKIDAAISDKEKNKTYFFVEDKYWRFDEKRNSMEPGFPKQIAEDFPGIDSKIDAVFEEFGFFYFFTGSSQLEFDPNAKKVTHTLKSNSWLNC

## COc1ccc(S(=O)(=O)N(Cc2cccnc2)[C@@H](C(=O)NO)C(C)C)cc1 [MMI 270, N-hydroxy-2(R)-[(4-methoxysulfonyl)(3-picolyl)amino]-3-methylbutaneamide hydrochloride monohydrate]
Alport mice [1]; hydrochloride monohydrate
  glomerular and tubulointerstitial (renal) disease progression: very little glomerular or interstitial disease; also recorded: remarkable improvement
Alport mice [1]; [3]
  glomerular and tubulointerstitial (renal) disease progression: significantly reduced interstitial disease
Alport mice [2]; hydrochloride monohydrate
  glomerular basement membrane architecture: near complete restoration of normal glomerular basement membrane architecture; also recorded: prevents or reverses GBM damage
Alport mice [2]; listed as MMI-270, hydrochloride monohydrate
  glomerular basement membrane architecture: largely restored GBM ultrastructure and function; also recorded: markedly improved glomerular basement membrane architecture
Alport mice [2]; [3]
  glomerular basement membrane architecture: markedly improved GBM ultrastructure
MMP-2
  MMP inhibitory effect, MMP-2: inhibits
MMP-3
  MMP inhibitory effect, MMP-3: inhibits
MMP-14
  MMP inhibitory effect, MMP-14: inhibits
Wide range of MMPs
  concentrations inhibiting activity of a wide range of MMPs: nM concentrations
